Results as given in patent US20240270751A1, “Pyrazolopyridinone Compounds” (BeiGene Ltd., priority 2021, published 2024).

Legend:
DGKζ = DGKζ (Homo sapiens (Human), UniProt Q13574); assay: Biochemical DGK IC50 assay, DGKζ ADP-Glo assay; details: 0.5 nM enzyme, 140 μM ATP, 80 μM DAG; read-out: DGKζ ADP-Glo assay IC50
Procedure, shortened: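 Full-length human DGKζ, His-TEV tagged and purified from baculovirus-infected Sf9 cells, assayed by ADP-Glo with DAG/PS lipid micelle substrate prepared in 25 mM HEPES pH 7.0 with octyl glucoside. Final compound concentrations spanned 1.55–10000 nM or 23.3–150000 nM.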

DGKα = DGKα (Homo sapiens (Human), UniProt P23743); assay: Biochemical DGK IC50 assay, DGKα ADP-Glo assay; details: 7.5 nM enzyme, 140 μM ATP, 80 μM DAG
Sequence of DGKα (P23743 whole entry): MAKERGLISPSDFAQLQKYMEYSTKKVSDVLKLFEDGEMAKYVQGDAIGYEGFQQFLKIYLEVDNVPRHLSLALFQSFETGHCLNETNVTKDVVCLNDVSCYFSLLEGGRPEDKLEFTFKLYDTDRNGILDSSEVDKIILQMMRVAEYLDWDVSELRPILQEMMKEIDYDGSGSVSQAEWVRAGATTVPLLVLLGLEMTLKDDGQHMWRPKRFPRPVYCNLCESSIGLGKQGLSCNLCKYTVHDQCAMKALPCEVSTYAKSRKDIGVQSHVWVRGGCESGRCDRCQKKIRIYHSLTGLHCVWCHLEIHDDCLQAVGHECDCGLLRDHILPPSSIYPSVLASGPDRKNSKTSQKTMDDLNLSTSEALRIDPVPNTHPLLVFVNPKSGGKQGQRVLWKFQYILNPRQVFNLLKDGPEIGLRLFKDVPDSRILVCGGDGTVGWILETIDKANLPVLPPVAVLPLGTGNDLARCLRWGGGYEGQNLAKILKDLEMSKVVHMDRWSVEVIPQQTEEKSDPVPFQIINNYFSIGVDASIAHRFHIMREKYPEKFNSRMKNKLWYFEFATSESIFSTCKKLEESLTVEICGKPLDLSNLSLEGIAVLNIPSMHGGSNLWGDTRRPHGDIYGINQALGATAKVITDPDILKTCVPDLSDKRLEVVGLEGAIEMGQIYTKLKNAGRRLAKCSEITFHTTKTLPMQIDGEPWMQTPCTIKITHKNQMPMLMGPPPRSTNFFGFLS
Procedure, shortened: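 ADP-Glo read-out with full-length DGKα on DAG/PS lipid micelle substrate in 25 mM HEPES pH 7.0, 0.5 mM EDTA, 160 mM octyl β-D-glucopyranoside. Compound final concentrations spanned 1.55˜10000 nM or 23.3˜150000 nM.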

Sequence of DGKζ (Q13574 other isoform, or with tags, fused parts or gaps): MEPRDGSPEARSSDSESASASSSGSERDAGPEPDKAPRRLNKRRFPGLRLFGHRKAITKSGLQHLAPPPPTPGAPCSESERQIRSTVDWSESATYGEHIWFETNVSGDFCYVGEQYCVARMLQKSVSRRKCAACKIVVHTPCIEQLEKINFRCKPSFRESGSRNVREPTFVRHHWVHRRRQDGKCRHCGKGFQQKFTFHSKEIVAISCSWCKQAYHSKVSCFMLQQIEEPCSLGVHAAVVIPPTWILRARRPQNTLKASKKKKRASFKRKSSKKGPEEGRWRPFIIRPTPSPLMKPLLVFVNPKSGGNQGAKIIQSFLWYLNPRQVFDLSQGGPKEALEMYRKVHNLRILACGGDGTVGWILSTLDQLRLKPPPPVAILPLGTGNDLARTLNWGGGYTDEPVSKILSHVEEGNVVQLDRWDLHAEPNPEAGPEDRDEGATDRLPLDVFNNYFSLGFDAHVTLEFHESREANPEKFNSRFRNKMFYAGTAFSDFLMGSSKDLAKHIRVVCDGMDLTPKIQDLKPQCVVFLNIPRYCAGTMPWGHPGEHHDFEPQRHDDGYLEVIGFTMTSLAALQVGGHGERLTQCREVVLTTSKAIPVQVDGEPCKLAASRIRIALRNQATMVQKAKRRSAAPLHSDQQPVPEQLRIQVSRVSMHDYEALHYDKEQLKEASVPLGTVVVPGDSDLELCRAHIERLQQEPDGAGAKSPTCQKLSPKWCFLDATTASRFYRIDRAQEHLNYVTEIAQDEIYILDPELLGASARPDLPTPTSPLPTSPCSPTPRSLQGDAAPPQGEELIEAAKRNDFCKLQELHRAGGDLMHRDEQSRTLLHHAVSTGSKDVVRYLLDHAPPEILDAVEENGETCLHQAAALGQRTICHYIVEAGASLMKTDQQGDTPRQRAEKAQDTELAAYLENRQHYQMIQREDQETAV

Compound | IC50 (DGKζ) | IC50 (DGKα)
C[C@@H]1CN(c2cc(=O)n(C)c3c(C(F)(F)F)n(CC#N)nc23)[C@@H](C)CN1[C@@H](C)c1ccc2nccnc2c1 (single isomer, unassigned) [Compound A243, 2-(7-((2S,5R)-2,5-dimethyl-4-((S)-1-(quinoxalin-6-yl)ethyl)piperazin-1-yl)-4-methyl-5-oxo-3-(trifluoromethyl)-4,5-dihydro-2H-pyrazolo[4,3-b]pyridin-2-yl)acetonitrile or 2-(7-((2S,5R)-2,5-dimethyl-4-((R)-1-(quinoxalin-6-yl)ethyl)piperazin-1-yl)-4-methyl-5-oxo-3-(trifluoromethyl)-4,5-dihydro-2H-pyrazolo[4,3-b]pyridin-2-yl)acetonitrile] | 1.35 µM | > 10 µM
C[C@@H]1CN(c2cc(=O)n(C)c3c(C(F)(F)F)nn(CC#N)c23)[C@@H](C)CN1[C@@H](C)c1ccc2nccnc2c1 (single isomer, unassigned) [Compound A244, 2-(7-((2S,5R)-2,5-dimethyl-4-((S)-1-(quinoxalin-6-yl)ethyl)piperazin-1-yl)-4-methyl-5-oxo-3-(trifluoromethyl)-4,5-dihydro-1H-pyrazolo[4,3-b]pyridin-1-yl)acetonitrile or 2-(7-((2S,5R)-2,5-dimethyl-4-((R)-1-(quinoxalin-6-yl)ethyl)piperazin-1-yl)-4-methyl-5-oxo-3-(trifluoromethyl)-4,5-dihydro-1H-pyrazolo[4,3-b]pyridin-1-yl)acetonitrile] | > 10 µM | > 10 µM
CC(c1ccc2nccnc2c1)N1C[C@H](C)N(c2cc(=O)[nH]c3cn(CC#N)nc23)C[C@H]1C (single isomer, unassigned) [Compound A260, 2-(7-((2S,5R)-2,5-dimethyl-4-((R)-1-(quinoxalin-6-yl)ethyl)piperazin-1-yl)-5-oxo-4,5-dihydro-2H-pyrazolo[4,3-b]pyridin-2-yl)acetonitrile, or 2-(7-((2S,5R)-2,5-dimethyl-4-((S)-1-(quinoxalin-6-yl)ethyl)piperazin-1-yl)-5-oxo-4,5-dihydro-2H-pyrazolo[4,3-b]pyridin-2-yl)acetonitrile] | 0.394 µM | > 10 µM
Cc1c2c(nn1CC#N)c(N1C[C@@H](C)N(C(C)c3ccc(F)cc3C(F)(F)F)C[C@@H]1C)nc(=O)n2C (single isomer, unassigned) [Compound A267a] | > 10 µM | > 10 µM
Cc1cnc2cc([C@H](C)N3C[C@H](C)N(c4cc(=O)n(C)c5cn(CC#N)nc45)C[C@H]3C)ccc2n1 (single isomer, unassigned) [Compound A269a, 2-(7-((2S,5R)-2,5-dimethyl-4-((S)-1-(2-methylquinoxalin-6-yl)ethyl)piperazin-1-yl)-4-methyl-5-oxo-4,5-dihydro-2H-pyrazolo[4,3-b]pyridin-2-yl)acetonitrile, or 2-(7-((2S,5R)-2,5-dimethyl-4-((R)-1-(2-methylquinoxalin-6-yl)ethyl)piperazin-1-yl)-4-methyl-5-oxo-4,5-dihydro-2H-pyrazolo[4,3-b]pyridin-2-yl)acetonitrile] | 0.365 µM | > 10 µM
Cc1cnc2cc([C@H](C)N3C[C@H](C)N(c4cc(=O)n(C)c5cn(CC#N)nc45)C[C@H]3C)ccc2n1 (single isomer, unassigned) [Compound A269b, 2-(7-((2S,5R)-2,5-dimethyl-4-((S)-1-(2-methylquinoxalin-6-yl)ethyl)piperazin-1-yl)-4-methyl-5-oxo-4,5-dihydro-2H-pyrazolo[4,3-b]pyridin-2-yl)acetonitrile, or 2-(7-((2S,5R)-2,5-dimethyl-4-((R)-1-(2-methylquinoxalin-6-yl)ethyl)piperazin-1-yl)-4-methyl-5-oxo-4,5-dihydro-2H-pyrazolo[4,3-b]pyridin-2-yl)acetonitrile] | 6.85 µM | > 10 µM
CC[C@H]1CN(C(C)c2ccc(F)cc2C(F)(F)F)[C@H](CC)CN1c1cc(=O)n(C)c2c[nH]nc12 (single isomer, unassigned) [Compound A275a] | 7.11 µM | > 10 µM
CC[C@H]1CN(C(C)c2ccc(F)cc2C(F)(F)F)[C@H](CC)CN1c1cc(=O)n(C)c2c[nH]nc12 (single isomer, unassigned) [Compound A275b] | 4.39 µM | > 10 µM
CC[C@H]1CN(C(C)c2ccc3nc(O)cnc3c2)[C@H](CC)CN1c1cc(=O)n(C)c2cn(CC#N)nc12 (single isomer, unassigned) [Compound A282a] | 5.35 µM | 0.182 µM
CC[C@H]1CN(C(C)c2ccc3nc(O)cnc3c2)[C@H](CC)CN1c1cc(=O)n(C)c2cn(CC#N)nc12 (single isomer, unassigned) [Compound A282b] | 6.96 µM | 10.5 µM
CC(c1ccc(F)cc1CC#N)N1C[C@H](C)N(c2cc(=O)n(C)c3cn(CC#N)nc23)C[C@H]1C (single isomer, unassigned) [Compound A287a] | 9.68 µM | > 10 µM
CC(c1ccc2ncc(CO)nc2c1)N1C[C@H](C)N(c2cc(=O)n(C)c3cn(CC#N)nc23)C[C@H]1C (single isomer, unassigned) [Compound A309a] | > 10 µM | 118 µM

More lines, in order of falling IC50 (DGKζ), values ahead:

IC50 (DGKζ) | IC50 (DGKα) | Compound
2.61 µM | > 10 µM | COC(C)c1cc(F)ccc1C(C)N1C[C@H](C)N(c2cc(=O)n(C)c3cn(CC#N)nc23)C[C@H]1C (single isomer, unassigned) [Compound A286a]
0.567 µM | > 10 µM | CC(c1ccc(F)cc1CC#N)N1C[C@H](C)N(c2cc(=O)n(C)c3cn(CC#N)nc23)C[C@H]1C (single isomer, unassigned) [Compound A287b]
0.524 µM | 54 µM | C=CCCn1cc2c(n1)c(N1C[C@@H](C)N(C(C)c3ccc4nccnc4c3)C[C@@H]1C)cc(=O)n2C (single isomer, unassigned) [Compound A300, 2-(but-3-en-1-yl)-7-((2S,5R)-2,5-dimethyl-4-((S)-1-(quinoxalin-6-yl)ethyl)piperazin-1-yl)-4-methyl-2,4-dihydro-5H-pyrazolo[4,3-b]pyridin-5-one, or 2-(but-3-en-1-yl)-7-((2S,5R)-2,5-dimethyl-4-((R)-1-(quinoxalin-6-yl)ethyl)piperazin-1-yl)-4-methyl-2,4-dihydro-5H-pyrazolo[4,3-b]pyridin-5-one]
0.09 µM | 66.1 µM | C=CCn1cc2c(n1)c(N1C[C@@H](C)N(C(C)c3ccc4nccnc4c3)C[C@@H]1C)cc(=O)n2C (single isomer, unassigned) [Compound A299, 2-allyl-7-((2S,5R)-2,5-dimethyl-4-((S)-1-(quinoxalin-6-yl)ethyl)piperazin-1-yl)-4-methyl-2,4-dihydro-5H-pyrazolo[4,3-b]pyridin-5-one, or 2-allyl-7-((2S,5R)-2,5-dimethyl-4-((R)-1-(quinoxalin-6-yl)ethyl)piperazin-1-yl)-4-methyl-2,4-dihydro-5H-pyrazolo[4,3-b]pyridin-5-one]
0.077 µM | 6.65 µM | CC[C@H]1CN(C(C)c2ccc3nc(OC)cnc3c2)[C@H](CC)CN1c1cc(=O)n(C)c2cn(CC#N)nc12 (single isomer, unassigned) [Compound A281a]
0.017 µM | 51.5 µM | COC(C)c1cc(F)ccc1C(C)N1C[C@H](C)N(c2cc(=O)n(C)c3cn(CC#N)nc23)C[C@H]1C (single isomer, unassigned) [Compound A286b]
